Tested on: U2OS cells
Test: U2OS cells plated on 2D alginate substrates: spreading, YAP localization, proliferation
Assay type: cell-based, human
Settings: 10 μM, initial Young's modulus 1.4 kPa, RGD 1500
Protocol: Plating of cells on gels. 1 mm thick alginate hydrogels were prepared as previously described (Zhao et al. J. Appl. Phys. 107, 63509 (2010); and Huebsch et al. Nat Mater 9, 518-526 (2010)). Following gelation, 15 mm disks were punched out, and these disks were washed thoroughly 4 times over 2 days in serum free media to remove any excess calcium. […] Cells were allowed to spread for 20 hours, and then were fixed and stained for analysis. Only isolated cells, without any cell-cell contacts, were analyzed. Immunohistochemistry. For immunohistochemical staining, media was first removed from the gels. The gels were then fixed with 4% paraformaldehyde in serum free DMEM at 37° C. for 30-45 minutes. Gels were then washed 3 times in PBS containing calcium (cPBS). Gels from 3D studies were then incubated overnight in 30% sucrose in cPBS at 4° C. […] Images of all single cells were then thresholded manually based on the actin stain, and the area of the thresholded cell body was determined using a custom macro in ImageJ (NIH). […] The YAP nuclear localization ratio was then determined as the summed intensity of the YAP signal within the nucleus normalized by the nuclear area divided by the summed intensity of the YAP signal outside of the nucleus normalized by the non-nuclear cytoskeleton area.

C[C@@H](N)[C@H]1CC[C@H](C(=O)Nc2ccncc2)CC1 [Y-27632]
effect on increased cell spreading on stress relaxing substrate: abrogated the increased cell spreading
